# Patent publication US20080051457A1, “Optically Active Phthalamide Derivative, Agricultural or Horticultural Insecticide, and Method of Using the Same” (priority 2004, published 2008)
# Assay: logP (pH2.3), physical properties of Tables 1 to 3
# Type: physicochemical
# Settings: not given
# Excerpt: However, the present invention is not limited to these compounds. In the tables, the term “physical properties” means a melting point or logp. The symbol “Me” represents a methyl group, “Et” represents an ethyl group, “Pr” represents a propyl group, “-n” represents normal, and “-i” represents iso.
row,SMILES,Physical properties logP(pH2.3)
1,CCC(C[S+](C)[O-])NC(=O)c1c(Cl)cccc1C(=O)Nc1ccc(C(F)(C(F)(F)F)C(F)(F)F)cc1C (mixture of isomers) [Compound 1-340],2.78

# Same assay, conditions: Table 1
row,SMILES,Physical properties: logP
1,CCSC[C@H](C)NC(=O)c1c(I)cccc1C(=O)Nc1ccc(C(F)(C(F)(F)F)C(F)(F)F)c(F)c1C [Compound 1-105],4.71
2,CC[S+]([O-])C[C@H](C)NC(=O)c1c(I)cccc1C(=O)Nc1ccc(C(F)(C(F)(F)F)C(F)(F)F)c(F)c1C (stereo partly drawn) [Compound 1-106],2.97
3,CCSC[C@H](C)NC(=O)c1c(I)cccc1C(=O)Nc1ccc(C(F)(F)C(F)(F)F)c(F)c1C [Compound 1-108],4.36
4,CCSC[C@H](C)NC(=O)c1c(I)cccc1C(=O)Nc1ccc(C(F)(F)C(F)(F)F)c(Cl)c1C [Compound 1-111],4.53
5,CCSC[C@H](C)NC(=O)c1c(I)cccc1C(=O)Nc1ccc(Br)c(F)c1C [Compound 1-120],3.65
6,CCSC[C@H](C)NC(=O)c1c(I)cccc1C(=O)Nc1ccc(C(F)(F)F)c(F)c1C [Compound 1-126],3.90
7,CCSC[C@H](C)NC(=O)c1c(I)cccc1C(=O)Nc1ccc(Br)c(Br)c1C [Compound 1-129],3.89
8,CCSC[C@H](C)NC(=O)c1c(I)cccc1C(=O)Nc1ccc(I)c(F)c1C [Compound 1-132],3.77
9,CSC[C@H](C)NC(=O)c1c(I)cccc1C(=O)Nc1ccc(C(F)(F)C(F)(F)F)c(F)c1C [Compound 1-135],4.03
10,Cc1c(NC(=O)c2cccc(I)c2C(=O)N[C@@H](C)C[S+](C)[O-])ccc(C(F)(F)C(F)(F)F)c1F (stereo partly drawn) [Compound 1-136],2.50
11,CSC[C@H](C)NC(=O)c1c(I)cccc1C(=O)Nc1ccc(C(F)(C(F)(F)F)C(F)(F)F)c(F)c1C [Compound 1-141],4.41
12,Cc1c(NC(=O)c2cccc(I)c2C(=O)N[C@@H](C)C[S+](C)[O-])ccc(C(F)(C(F)(F)F)C(F)(F)F)c1F (stereo partly drawn) [Compound 1-142],2.78
13,Cc1c(NC(=O)c2cccc(I)c2C(=O)N[C@@H](C)CS(C)(=O)=O)ccc(C(F)(C(F)(F)F)C(F)(F)F)c1F [Compound 1-143],3.27
14,CSC[C@H](C)NC(=O)c1c(I)cccc1C(=O)Nc1ccc(Br)c(F)c1C [Compound 1-147],3.30
15,CSC[C@H](C)NC(=O)c1c(I)cccc1C(=O)Nc1ccc(I)c(F)c1C [Compound 1-150],3.42
16,CSC[C@H](C)NC(=O)c1c(I)cccc1C(=O)Nc1ccc(Br)c(Br)c1C [Compound 1-153],3.55

row,SMILES,Physical properties: logP
1,CSC[C@H](C)NC(=O)c1c(I)cccc1C(=O)Nc1ccc(C(F)(F)F)c(F)c1C [Compound 1-156],3.58
2,CSC[C@H](C)NC(=O)c1c(Br)cccc1C(=O)Nc1ccc(C(F)(F)C(F)(F)F)c(F)c1C [Compound 1-165],3.93
3,Cc1c(NC(=O)c2cccc(Br)c2C(=O)N[C@@H](C)C[S+](C)[O-])ccc(C(F)(F)C(F)(F)F)c1F (stereo partly drawn) [Compound 1-166],2.42
4,Cc1c(NC(=O)c2cccc(Br)c2C(=O)N[C@@H](C)CS(C)(=O)=O)ccc(C(F)(F)C(F)(F)F)c1F [Compound 1-167],2.86
5,CSC[C@H](C)NC(=O)c1c(Br)cccc1C(=O)Nc1ccc(C(F)(C(F)(F)F)C(F)(F)F)c(F)c1C [Compound 1-168],4.31
6,Cc1c(NC(=O)c2cccc(Br)c2C(=O)N[C@@H](C)C[S+](C)[O-])ccc(C(F)(C(F)(F)F)C(F)(F)F)c1F (stereo partly drawn) [Compound 1-169],2.72
7,Cc1c(NC(=O)c2cccc(Br)c2C(=O)N[C@@H](C)CS(C)(=O)=O)ccc(C(F)(C(F)(F)F)C(F)(F)F)c1F [Compound 1-170],3.21
8,CCSC[C@H](C)NC(=O)c1c(Br)cccc1C(=O)Nc1ccc(C(F)(F)C(F)(F)F)c(F)c1C [Compound 1-171],4.26
9,CC[S+]([O-])C[C@H](C)NC(=O)c1c(Br)cccc1C(=O)Nc1ccc(C(F)(F)C(F)(F)F)c(F)c1C (stereo partly drawn) [Compound 1-172],2.59
10,CCSC[C@H](C)NC(=O)c1c(Br)cccc1C(=O)Nc1ccc(C(F)(F)C(F)(F)F)c(Cl)c1C [Compound 1-174],4.43
11,CCSC[C@H](C)NC(=O)c1c(Br)cccc1C(=O)Nc1ccc(Br)c(F)c1C [Compound 1-177],3.54
12,CCSC[C@H](C)NC(=O)c1c(Br)cccc1C(=O)Nc1ccc(C(F)(F)F)c(F)c1C [Compound 1-180],3.80
13,CCSC[C@H](C)NC(=O)c1c(Br)cccc1C(=O)Nc1ccc(I)c(F)c1C [Compound 1-183],3.66
14,CCSC[C@H](C)NC(=O)c1c(Br)cccc1C(=O)Nc1ccc(Br)c(Br)c1C [Compound 1-186],3.78
15,CCSC[C@H](C)NC(=O)c1c(Br)cccc1C(=O)Nc1cc(F)c(OC(F)(F)F)cc1Cl [Compound 1-192],4.16

# Further lines, results first:
row,Physical properties: logP,SMILES
1,3.47,CCS(=O)(=O)C[C@H](C)NC(=O)c1c(I)cccc1C(=O)Nc1ccc(C(F)(C(F)(F)F)C(F)(F)F)c(F)c1C [Compound 1-107]
2,3.15,CCS(=O)(=O)C[C@H](C)NC(=O)c1c(I)cccc1C(=O)Nc1ccc(C(F)(F)C(F)(F)F)c(F)c1C [Compound 1-110]
3,4.28,CCSC[C@H](C)NC(=O)c1c(I)cccc1C(=O)Nc1cc(F)c(OC(F)(F)F)cc1Br [Compound 1-114]
4,3.09,CCS(=O)(=O)C[C@H](C)NC(=O)c1c(I)cccc1C(=O)Nc1cc(F)c(OC(F)(F)F)cc1Br [Compound 1-116]
5,4.26,CCSC[C@H](C)NC(=O)c1c(I)cccc1C(=O)Nc1cc(F)c(OC(F)(F)F)cc1Cl [Compound 1-117]
6,3.07,CCS(=O)(=O)C[C@H](C)NC(=O)c1c(I)cccc1C(=O)Nc1cc(F)c(OC(F)(F)F)cc1Cl [Compound 1-119]
7,2.49,CCS(=O)(=O)C[C@H](C)NC(=O)c1c(I)cccc1C(=O)Nc1ccc(Br)c(F)c1C [Compound 1-122]
8,3.90,CCSC[C@H](C)NC(=O)c1c(I)cccc1C(=O)Nc1ccc(OC(F)(F)F)c(F)c1C [Compound 1-123]
9,2.77,CCS(=O)(=O)C[C@H](C)NC(=O)c1c(I)cccc1C(=O)Nc1ccc(OC(F)(F)F)c(F)c1C [Compound 1-125]
10,2.74,CCS(=O)(=O)C[C@H](C)NC(=O)c1c(I)cccc1C(=O)Nc1ccc(C(F)(F)F)c(F)c1C [Compound 1-128]
11,2.67,CCS(=O)(=O)C[C@H](C)NC(=O)c1c(I)cccc1C(=O)Nc1ccc(Br)c(Br)c1C [Compound 1-131]
12,2.59,CCS(=O)(=O)C[C@H](C)NC(=O)c1c(I)cccc1C(=O)Nc1ccc(I)c(F)c1C [Compound 1-134]
13,2.97,Cc1c(NC(=O)c2cccc(I)c2C(=O)N[C@@H](C)CS(C)(=O)=O)ccc(C(F)(F)C(F)(F)F)c1F [Compound 1-137]
14,3.59,CSC[C@H](C)NC(=O)c1c(I)cccc1C(=O)Nc1ccc(OC(F)(F)F)c(F)c1C [Compound 1-138]
15,2.60,Cc1c(NC(=O)c2cccc(I)c2C(=O)N[C@@H](C)CS(C)(=O)=O)ccc(OC(F)(F)F)c1F [Compound 1-140]
16,4.20,CSC[C@H](C)NC(=O)c1c(I)cccc1C(=O)Nc1ccc(C(F)(F)C(F)(F)F)c(Cl)c1C [Compound 1-144]

row,Physical properties: logP,SMILES
1,2.29,Cc1c(NC(=O)c2cccc(I)c2C(=O)N[C@@H](C)CS(C)(=O)=O)ccc(Br)c1F [Compound 1-149]
2,2.40,Cc1c(NC(=O)c2cccc(I)c2C(=O)N[C@@H](C)CS(C)(=O)=O)ccc(I)c1F [Compound 1-152]
3,2.49,Cc1c(NC(=O)c2cccc(I)c2C(=O)N[C@@H](C)CS(C)(=O)=O)ccc(Br)c1Br [Compound 1-155]
4,4.41,CCSC[C@H](C)NC(=O)c1c(I)cccc1C(=O)Nc1ccc(OC(F)(F)F)c(Cl)c1Cl [Compound 1-159]
5,3.18,CCS(=O)(=O)C[C@H](C)NC(=O)c1c(I)cccc1C(=O)Nc1ccc(OC(F)(F)F)c(Cl)c1Cl [Compound 1-161]
6,4.42,CCSC[C@H](C)NC(=O)c1c(I)cccc1C(=O)Nc1ccc(OC(F)(F)F)c(Br)c1Cl [Compound 1-162]
7,3.19,CCS(=O)(=O)C[C@H](C)NC(=O)c1c(I)cccc1C(=O)Nc1ccc(OC(F)(F)F)c(Br)c1Cl [Compound 1-164]
8,3.06,CCS(=O)(=O)C[C@H](C)NC(=O)c1c(Br)cccc1C(=O)Nc1ccc(C(F)(F)C(F)(F)F)c(F)c1C [Compound 1-173]
9,3.19,CCS(=O)(=O)C[C@H](C)NC(=O)c1c(Br)cccc1C(=O)Nc1ccc(C(F)(F)C(F)(F)F)c(Cl)c1C [Compound 1-176]
10,2.39,CCS(=O)(=O)C[C@H](C)NC(=O)c1c(Br)cccc1C(=O)Nc1ccc(Br)c(F)c1C [Compound 1-179]
11,2.66,CCS(=O)(=O)C[C@H](C)NC(=O)c1c(Br)cccc1C(=O)Nc1ccc(C(F)(F)F)c(F)c1C [Compound 1-182]
12,2.51,CCS(=O)(=O)C[C@H](C)NC(=O)c1c(Br)cccc1C(=O)Nc1ccc(I)c(F)c1C [Compound 1-185]
13,2.59,CCS(=O)(=O)C[C@H](C)NC(=O)c1c(Br)cccc1C(=O)Nc1ccc(Br)c(Br)c1C [Compound 1-188]
14,3.81,CCSC[C@H](C)NC(=O)c1c(Br)cccc1C(=O)Nc1ccc(OC(F)(F)F)c(F)c1C [Compound 1-189]
15,2.69,CCS(=O)(=O)C[C@H](C)NC(=O)c1c(Br)cccc1C(=O)Nc1ccc(OC(F)(F)F)c(F)c1C [Compound 1-191]
